Measured values from ChEMBL document CHEMBL4507293 (2021).

Experiments:
[1] = molecular target: Dual 3',5'-cyclic-AMP and -GMP phosphodiesterase 11A (Homo sapiens, UniProt Q9HCR9); assay: Biochemical assay (PDE11A)
[2] = test system: Tyrosine-protein kinase ABL1 (Homo sapiens), P00519 [Q252H]; settings: Compound concentration 100.0 nM
[3] = test system: Tyrosine-protein kinase ABL1 (Homo sapiens), P00519 [T315I]; settings: Compound concentration 100.0 nM
[4] = molecular target: Activin receptor type-1B (Homo sapiens) (UniProt P36896); settings: Compound concentration 100.0 nM
[5] = molecular target: Ankyrin repeat and protein kinase domain-containing protein 1 (Homo sapiens) (UniProt Q8NFD2); settings: Compound concentration 100.0 nM
[6] = molecular target: Aurora kinase A (Homo sapiens) (UniProt O14965); settings: Compound concentration 100.0 nM
[7] = test system: Serine/threonine-protein kinase B-raf (Homo sapiens), P15056 [V600E]; settings: Compound concentration 100.0 nM
[8] = molecular target: Tyrosine-protein kinase BTK (Homo sapiens) (UniProt Q06187); settings: Compound concentration 100.0 nM
[9] = molecular target: Calcium/calmodulin-dependent protein kinase type 1D (Homo sapiens) (UniProt Q8IU85); settings: Compound concentration 100.0 nM
[10] = molecular target: Calcium/calmodulin-dependent protein kinase type II subunit beta (Homo sapiens) (UniProt Q13554); settings: Compound concentration 100.0 nM
[11] = molecular target: Cyclin-dependent kinase 4 (Homo sapiens) (UniProt P11802); settings: Compound concentration 100.0 nM
Chain of Cyclin-dependent kinase 4 (Homo sapiens) (P11802 whole entry): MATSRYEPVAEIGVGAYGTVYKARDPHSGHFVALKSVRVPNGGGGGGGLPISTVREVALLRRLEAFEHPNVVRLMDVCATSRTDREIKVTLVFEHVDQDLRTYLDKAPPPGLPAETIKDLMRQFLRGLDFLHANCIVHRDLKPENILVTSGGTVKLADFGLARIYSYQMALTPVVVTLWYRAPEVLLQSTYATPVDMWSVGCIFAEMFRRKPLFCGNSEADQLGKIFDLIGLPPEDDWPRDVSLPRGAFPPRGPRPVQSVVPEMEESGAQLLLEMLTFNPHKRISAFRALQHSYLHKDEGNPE

[12] = molecular target: Cyclin-dependent kinase 7 (Homo sapiens) (UniProt P50613); settings: Compound concentration 100.0 nM
[13] = molecular target: Ephrin type-A receptor 3 (Homo sapiens) (UniProt P29320); settings: Compound concentration 100.0 nM
[14] = molecular target: Ephrin type-B receptor 2 (Homo sapiens) (UniProt P29323); settings: Compound concentration 100.0 nM
[15] = test system: Receptor-type tyrosine-protein kinase FLT3 (Homo sapiens), P36888 [UNDEFINED MUTATION]; settings: Compound concentration 100.0 nM
[16] = molecular target: G protein-coupled receptor kinase 3 (Homo sapiens) (UniProt P35626); settings: Compound concentration 100.0 nM
Chain of G protein-coupled receptor kinase 3 (Homo sapiens) (P35626 whole entry): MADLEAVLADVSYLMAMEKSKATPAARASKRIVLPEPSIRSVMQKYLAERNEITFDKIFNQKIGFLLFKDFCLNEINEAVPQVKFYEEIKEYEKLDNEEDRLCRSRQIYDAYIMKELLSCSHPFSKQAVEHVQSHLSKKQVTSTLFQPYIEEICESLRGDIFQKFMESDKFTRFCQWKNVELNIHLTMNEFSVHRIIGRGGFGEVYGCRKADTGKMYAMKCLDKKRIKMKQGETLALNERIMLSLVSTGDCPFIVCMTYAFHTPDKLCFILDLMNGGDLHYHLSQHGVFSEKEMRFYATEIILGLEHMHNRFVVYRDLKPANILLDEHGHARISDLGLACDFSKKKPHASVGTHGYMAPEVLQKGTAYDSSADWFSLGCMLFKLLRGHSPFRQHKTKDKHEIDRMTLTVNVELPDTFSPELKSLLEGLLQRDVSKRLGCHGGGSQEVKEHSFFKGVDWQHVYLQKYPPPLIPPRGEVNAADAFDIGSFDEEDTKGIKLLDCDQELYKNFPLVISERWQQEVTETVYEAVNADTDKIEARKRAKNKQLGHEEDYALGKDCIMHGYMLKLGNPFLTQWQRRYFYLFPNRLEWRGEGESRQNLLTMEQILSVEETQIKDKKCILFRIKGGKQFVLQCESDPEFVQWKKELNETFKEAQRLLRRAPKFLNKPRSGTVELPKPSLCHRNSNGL

[17] = molecular target: Mitogen-activated protein kinase 10 (Homo sapiens) (UniProt P53779); settings: Compound concentration 100.0 nM
[18] = molecular target: Mast/stem cell growth factor receptor Kit (Homo sapiens) (UniProt P10721); settings: Compound concentration 100.0 nM
[19] = molecular target: Mitogen-activated protein kinase kinase kinase 9 (Homo sapiens) (UniProt P80192); settings: Compound concentration 100.0 nM
[20] = molecular target: Myosin light chain kinase, smooth muscle (Homo sapiens) (UniProt Q15746); settings: Compound concentration 100.0 nM
[21] = molecular target: Serine/threonine-protein kinase Nek5 (Homo sapiens) (UniProt Q6P3R8); settings: Compound concentration 100.0 nM
[22] = molecular target: Serine/threonine-protein kinase OSR1 (Homo sapiens) (UniProt O95747); settings: Compound concentration 100.0 nM
[23] = molecular target: Mitogen-activated protein kinase 12 (Homo sapiens) (UniProt P53778); settings: Compound concentration 100.0 nM
[24] = molecular target: Cyclin-dependent kinase 14 (Homo sapiens) (UniProt O94921); settings: Compound concentration 100.0 nM
[25] = test system: Phosphatidylinositol 4,5-bisphosphate 3-kinase catalytic subunit alpha isoform (Homo sapiens), P42336 [E545K]; settings: Compound concentration 100.0 nM
Chain of Phosphatidylinositol 4,5-bisphosphate 3-kinase catalytic subunit alpha isoform (Homo sapiens), P42336 [E545K] (P42336 whole entry E545K, canonical isoform): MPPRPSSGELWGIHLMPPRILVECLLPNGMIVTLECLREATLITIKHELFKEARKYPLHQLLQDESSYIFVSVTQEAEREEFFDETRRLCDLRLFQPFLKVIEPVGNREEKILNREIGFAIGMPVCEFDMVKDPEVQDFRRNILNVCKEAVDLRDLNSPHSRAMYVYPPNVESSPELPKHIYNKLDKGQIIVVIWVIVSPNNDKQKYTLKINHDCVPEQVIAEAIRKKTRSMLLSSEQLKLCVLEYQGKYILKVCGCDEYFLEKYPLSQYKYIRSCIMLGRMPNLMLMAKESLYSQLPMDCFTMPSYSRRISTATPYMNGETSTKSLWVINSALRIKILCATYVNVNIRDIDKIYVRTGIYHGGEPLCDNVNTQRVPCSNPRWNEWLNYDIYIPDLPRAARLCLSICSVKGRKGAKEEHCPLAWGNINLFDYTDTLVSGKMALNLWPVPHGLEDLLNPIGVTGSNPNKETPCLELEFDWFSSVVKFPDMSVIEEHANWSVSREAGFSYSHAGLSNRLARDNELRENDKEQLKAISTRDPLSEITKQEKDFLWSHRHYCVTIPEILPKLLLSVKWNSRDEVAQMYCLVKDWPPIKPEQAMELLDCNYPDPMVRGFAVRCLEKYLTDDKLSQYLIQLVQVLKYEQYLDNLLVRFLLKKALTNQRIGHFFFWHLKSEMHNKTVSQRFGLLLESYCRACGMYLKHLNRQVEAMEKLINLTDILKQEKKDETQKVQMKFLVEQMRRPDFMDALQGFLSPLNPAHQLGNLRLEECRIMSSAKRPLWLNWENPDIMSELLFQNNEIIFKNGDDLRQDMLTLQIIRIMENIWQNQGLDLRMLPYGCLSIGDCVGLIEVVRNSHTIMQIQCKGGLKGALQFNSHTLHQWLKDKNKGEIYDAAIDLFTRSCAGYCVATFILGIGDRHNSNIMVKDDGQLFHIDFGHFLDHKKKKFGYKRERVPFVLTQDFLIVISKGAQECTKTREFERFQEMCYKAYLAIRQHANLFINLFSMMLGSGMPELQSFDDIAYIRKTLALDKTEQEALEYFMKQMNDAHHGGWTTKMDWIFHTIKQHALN

[26] = test system: Phosphatidylinositol 4,5-bisphosphate 3-kinase catalytic subunit alpha isoform (Homo sapiens), P42336 [I800L]; settings: Compound concentration 100.0 nM
Chain of Phosphatidylinositol 4,5-bisphosphate 3-kinase catalytic subunit alpha isoform (Homo sapiens), P42336 [I800L] (P42336 whole entry I800L, canonical isoform): as the sequence (P42336 whole entry E545K, canonical isoform) above, with K545E, I800L counted along it

[27] = molecular target: Serine/threonine-protein kinase pim-3 (Homo sapiens) (UniProt Q86V86); settings: Compound concentration 100.0 nM
[28] = molecular target: Membrane-associated tyrosine- and threonine-specific cdc2-inhibitory kinase (Homo sapiens) (UniProt Q99640); settings: Compound concentration 100.0 nM
[29] = molecular target: cGMP-dependent protein kinase 1 (Homo sapiens) (UniProt Q13976); settings: Compound concentration 100.0 nM
Chain of cGMP-dependent protein kinase 1 (Homo sapiens) (Q13976 whole entry): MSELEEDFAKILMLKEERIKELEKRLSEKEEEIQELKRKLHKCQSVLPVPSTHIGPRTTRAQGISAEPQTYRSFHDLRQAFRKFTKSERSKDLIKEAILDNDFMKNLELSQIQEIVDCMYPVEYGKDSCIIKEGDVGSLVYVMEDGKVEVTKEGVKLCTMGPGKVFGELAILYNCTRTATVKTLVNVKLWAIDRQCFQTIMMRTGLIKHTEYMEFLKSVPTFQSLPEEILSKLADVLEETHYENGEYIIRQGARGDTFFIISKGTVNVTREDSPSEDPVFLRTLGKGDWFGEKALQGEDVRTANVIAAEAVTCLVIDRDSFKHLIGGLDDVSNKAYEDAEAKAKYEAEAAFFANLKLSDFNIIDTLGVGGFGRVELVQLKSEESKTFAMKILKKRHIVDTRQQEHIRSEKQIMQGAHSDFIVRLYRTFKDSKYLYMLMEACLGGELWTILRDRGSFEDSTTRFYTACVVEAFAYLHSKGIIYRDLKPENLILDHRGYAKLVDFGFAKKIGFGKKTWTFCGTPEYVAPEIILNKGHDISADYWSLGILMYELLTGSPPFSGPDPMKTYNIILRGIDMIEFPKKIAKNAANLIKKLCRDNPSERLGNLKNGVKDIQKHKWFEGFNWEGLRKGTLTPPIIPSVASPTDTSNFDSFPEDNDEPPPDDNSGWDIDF

[30] = molecular target: RAF proto-oncogene serine/threonine-protein kinase (Homo sapiens) (UniProt P04049); settings: Compound concentration 100.0 nM
Chain of RAF proto-oncogene serine/threonine-protein kinase (Homo sapiens) (P04049 whole entry): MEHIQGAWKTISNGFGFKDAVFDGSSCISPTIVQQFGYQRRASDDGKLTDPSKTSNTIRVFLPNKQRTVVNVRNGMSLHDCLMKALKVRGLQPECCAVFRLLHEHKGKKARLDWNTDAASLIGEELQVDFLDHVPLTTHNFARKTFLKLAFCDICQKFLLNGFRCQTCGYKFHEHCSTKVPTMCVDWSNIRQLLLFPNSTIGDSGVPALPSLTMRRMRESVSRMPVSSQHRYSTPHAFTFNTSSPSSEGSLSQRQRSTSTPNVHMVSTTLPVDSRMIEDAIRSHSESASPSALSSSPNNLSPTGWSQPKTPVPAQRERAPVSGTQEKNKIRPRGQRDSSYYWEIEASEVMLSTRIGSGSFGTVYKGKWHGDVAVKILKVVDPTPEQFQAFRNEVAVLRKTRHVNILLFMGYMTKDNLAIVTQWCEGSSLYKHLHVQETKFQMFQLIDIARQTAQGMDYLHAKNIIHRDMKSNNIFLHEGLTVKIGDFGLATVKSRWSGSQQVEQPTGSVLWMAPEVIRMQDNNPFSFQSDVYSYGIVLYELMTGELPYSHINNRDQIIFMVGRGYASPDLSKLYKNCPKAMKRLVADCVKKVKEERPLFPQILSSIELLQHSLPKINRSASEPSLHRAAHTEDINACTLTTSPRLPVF

[31] = molecular target: NUAK family SNF1-like kinase 2 (Homo sapiens) (UniProt Q9H093); settings: Compound concentration 100.0 nM
Chain of NUAK family SNF1-like kinase 2 (Homo sapiens) (Q9H093 whole entry): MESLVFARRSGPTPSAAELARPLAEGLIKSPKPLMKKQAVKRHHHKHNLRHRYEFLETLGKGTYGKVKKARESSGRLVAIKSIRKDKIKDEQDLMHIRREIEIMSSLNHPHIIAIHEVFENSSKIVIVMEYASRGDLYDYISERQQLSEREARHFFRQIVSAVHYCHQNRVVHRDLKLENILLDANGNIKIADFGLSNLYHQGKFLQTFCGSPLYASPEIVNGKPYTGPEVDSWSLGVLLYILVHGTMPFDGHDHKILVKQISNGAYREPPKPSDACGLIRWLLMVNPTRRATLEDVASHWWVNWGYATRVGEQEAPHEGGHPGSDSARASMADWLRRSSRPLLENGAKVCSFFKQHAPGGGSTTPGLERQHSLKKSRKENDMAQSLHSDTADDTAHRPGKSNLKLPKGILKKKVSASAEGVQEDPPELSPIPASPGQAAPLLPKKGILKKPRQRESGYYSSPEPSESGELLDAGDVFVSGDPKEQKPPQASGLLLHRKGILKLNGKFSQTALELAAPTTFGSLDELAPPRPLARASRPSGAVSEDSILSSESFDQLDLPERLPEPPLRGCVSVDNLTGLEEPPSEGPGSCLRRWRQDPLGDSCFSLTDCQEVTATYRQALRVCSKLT

[32] = molecular target: SRSF protein kinase 1 (Homo sapiens) (UniProt Q96SB4); settings: Compound concentration 100.0 nM
[33] = molecular target: Tyrosine-protein kinase Tec (Homo sapiens) (UniProt P42680); settings: Compound concentration 100.0 nM
[34] = molecular target: Dual specificity protein kinase TTK (Homo sapiens) (UniProt P33981); settings: Compound concentration 100.0 nM
[35] = molecular target: Serine/threonine-protein kinase WNK3 (Homo sapiens) (UniProt Q9BYP7); settings: Compound concentration 100.0 nM
[36] = molecular target: Serine/threonine-protein kinase 32A (Homo sapiens) (UniProt Q8WU08); settings: Compound concentration 100.0 nM
[37] = molecular target: Mitogen-activated protein kinase kinase kinase 19 (Homo sapiens) (UniProt Q56UN5); settings: Compound concentration 100.0 nM
[38] = molecular target: T1, Alpha-1A adrenergic receptor (Homo sapiens) (UniProt P35348); settings: Compound concentration 10.0 uM
T1 sequence (whole entry): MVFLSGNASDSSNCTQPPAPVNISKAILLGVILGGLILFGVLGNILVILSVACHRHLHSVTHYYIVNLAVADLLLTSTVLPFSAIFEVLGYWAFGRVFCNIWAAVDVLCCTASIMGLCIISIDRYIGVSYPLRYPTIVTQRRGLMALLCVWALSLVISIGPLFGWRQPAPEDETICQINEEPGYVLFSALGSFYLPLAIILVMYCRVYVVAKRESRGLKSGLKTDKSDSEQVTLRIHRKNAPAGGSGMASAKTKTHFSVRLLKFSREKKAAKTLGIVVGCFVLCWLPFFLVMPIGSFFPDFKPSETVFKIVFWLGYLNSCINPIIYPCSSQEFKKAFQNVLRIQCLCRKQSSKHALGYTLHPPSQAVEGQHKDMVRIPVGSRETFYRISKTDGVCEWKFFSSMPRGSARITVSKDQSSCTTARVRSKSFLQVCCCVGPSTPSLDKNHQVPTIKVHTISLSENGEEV

SMILES | Ki [1] | residual activity [2] [%] | residual activity [3] [%] | residual activity [4] [%] | residual activity [5] [%] | residual activity [6] [%] | residual activity [7] [%] | residual activity [8] [%] | residual activity [9] [%] | residual activity [10] [%] | residual activity [11] [%] | residual activity [12] [%] | residual activity [13] [%] | residual activity [14] [%] | residual activity [15] [%] | residual activity [16] [%] | residual activity [17] [%] | residual activity [18] [%] | residual activity [19] [%] | residual activity [20] [%] | also measured
CC(C)CC(=O)N1CCc2nc(-c3ccc(Br)cc3)nc(N(C)Cc3ccccc3)c2C1 [THPP-1-NC] | 8.8 µM (not active) | 88 | 100 | 89 | 100 | 72 | 100 | 100 | 100 | 100 | 85 | 65 | 100 | 80 | 92 | 100 | 78 | 100 | 91 | 86 | residual activity [21]: 100%; residual activity [22]: 100%; residual activity [23]: 79%; residual activity [24]: 100%; residual activity [25]: 85%; residual activity [26]: 98%; residual activity [27]: 100%; residual activity [28]: 92%; residual activity [29]: 74%; residual activity [30]: 100%; residual activity [31]: 100%; residual activity [32]: 99%; residual activity [33]: 100%; residual activity [34]: 100%; residual activity [35]: 100%; residual activity [36]: 94%; residual activity [37]: 100%; inhibition [38]: -1.11%
COCCOc1nc(-c2ccc(Cl)nc2)nc2c1CN(C(=O)c1ncn3ccccc13)CC2 [THPP-1] | 0.298 µM (not active) | 81 | 100 | 86 | 100 | 81 | 100 | 100 | 100 | 100 | 96 | 77 | 96 | 79 | 100 | 100 | 91 | 100 | 100 | 70 | residual activity [21]: 100%; residual activity [22]: 100%; residual activity [23]: 72%; residual activity [24]: 100%; residual activity [25]: 71%; residual activity [26]: 66%; residual activity [27]: 100%; residual activity [28]: 100%; residual activity [29]: 87%; residual activity [30]: 97%; residual activity [31]: 100%; residual activity [32]: 86%; residual activity [33]: 100%; residual activity [34]: 100%; residual activity [35]: 100%; residual activity [36]: 83%; residual activity [37]: 100%; inhibition [38]: 12.7%
